Active and inactive are the calls of the source. The calls are words filed in the database; no cut-off is given here.
Key:
NIH3T3 = assay: Cytotoxicity against mouse NIH/3T3 cells assessed as cell viability after 72 hrs by MTT assay; assay type: cell-based; settings: NIH3T3, 72 h
L1210 [1] = assay: Cytotoxicity against mouse L1210 cells assessed as cell viability at 50 uM after 24 hrs by MTT assay in presence of vitamin E; assay type: functional; settings: L1210, 24 h, read-out: Activity
[2] = Selectivity ratio of IC50 for mouse NIH/3T3 cells to IC50 for mouse L1210 cells; assay type: ADME, cell-based; settings: NIH/3T3 cells versus L1210 cells, read-out: Ratio IC50
L1210 [3] = assay: Induction of apoptosis in mouse L1210 cells assessed as DNA ladder formation at 10 to 15 uM after 8 hrs by agarose gel electrophoresis; assay type: functional, cell-based
[4] = Drug uptake in mitochondria of mouse L1210 cells at 4 uM after 0.5 to 24 hrs by MitoRed staining-based flow cytometric analysis; assay type: ADME; settings: l1210, 4 µM
L1210 [5] = assay: Cytotoxicity against mouse L1210 cells assessed as cell viability at 5 to 20 uM after 24 hrs by MTT assay in presence of vitamin E; assay type: functional, cell-based
L1210 [6] = assay: Cell cycle arrest in mouse L1210 cells assessed as accumulation at S-phase at 10 uM after 5 hrs by propidium iodide staining-based flow cytometric analysis relative to control; assay type: functional
[7] = Drug uptake in nucleus of mouse L1210 cells by Hoechst-33342 staining-based fluorescence microscopic analysis; assay type: ADME, cell-based
L1210 [8] = assay: Cytotoxicity against mouse L1210 cells assessed as decrease in intracellular ATP level at 10 uM after 6 hrs by luminometric assay; assay type: functional; set-up: scale not given: the % may be the effect or the level left
L1210 [9] = assay: Cytotoxicity against mouse L1210 cells assessed as intracellular ATP level at 5 to 10 uM after 6 hrs by luminometric assay in presence of vitamin E; assay type: functional, cell-based
[10] = Drug uptake in lysosomes of mouse L1210 cells at 4 uM after 30 mins by MDC staining-based flow cytometric analysis; assay type: ADME, cell-based, Lysosome; settings: l1210, 0.5 h
[11] = Selectivity ratio of IC50 for mouse NIH/3T3 cells to IC50 for human HL60 cells; assay type: ADME, cell-based, HL-60; settings: NIH/3T3 cells versus HL60 cells, read-out: Ratio IC50
L1210 [12] = assay: Induction of intracellular ROS production in mouse L1210 cells at 5 uM after 6 hrs by Dihydroethidium staining-based fluorescence assay in absence of vitamin E relative to control; assay type: functional
L1210 [13] = assay: Induction of intracellular ROS production in mouse L1210 cells at 5 uM after 6 hrs by Dihydroethidium staining-based fluorescence assay in presence of vitamin E relative to control; assay type: functional, cell-based
[14] = Drug uptake in nucleus of mouse L1210 cells at 5 uM after 1 hr by propidium iodide staining-based confocal microscopic analysis; assay type: ADME, cell-based; settings: l1210, 1 h
L1210 [15] = assay: Induction of apoptosis in mouse L1210 cells assessed as nucleosomal DNA fragmentation at 10 to 15 uM after 4 hrs by agarose gel electrophoresis; assay type: functional, cell-based
L1210 [16] = assay: Cell cycle arrest in mouse L1210 cells assessed as accumulation at sub-G0 phase at 10 uM after 5 hrs by propidium iodide staining-based flow cytometric analysis relative to control; assay type: functional

CCCCCCN1C(=O)CN/C1=N\c1ccc2cc3ccc(/N=C4\NCC(=O)N4CCCCCC)cc3nc2c1.Cl
IC50 (NIH3T3): 18.6 µM
viability at 50 µM (L1210 [1]): 80%
selectivity ratio [2]: 4
Activity (L1210 [3]): Active
Drug uptake [4]: Active
Activity (L1210 [5]): Active
Activity (L1210 [6]): Active
Drug uptake [7]: Not Active
Activity (L1210 [8]): 50%
Activity (L1210 [9]): inactive
Drug uptake [10]: Not Active
selectivity ratio [11]: 4
fold change (FC) (L1210 [12]): 4
Activity (L1210 [13]): inactive
Drug uptake [14]: Not Active
Activity (L1210 [15]): inactive
Activity (L1210 [16]): 17.7%

Source: ChEMBL document CHEMBL3085632, “Subcellular localization of proflavine derivative and induction of oxidative stress--in vitro studies” (Bioorg Med Chem, 2013)
